Data set [1] concerns the target CDK2/Cyclin E (Homo sapiens, UniProt P24941). Briefly: CDK2/Cyclin E kinase flashplate assay (33P incorporation into biotinylated Rb peptide). It is filed as biochemical. The settings on record: CDK2/Cyclin E 20 nM, ATP 1 μM, Rb peptide 10 μM, 30 minute at 30° C. The protocol: Functional Measurements to Ascertain IC50 Values:
A 96-well streptavidin-coated flashplate is used to assay potency of compounds according to formula (I) against CDK2/Cyclin E kinase. To carry out the assay, biotinylated-Rb peptide substrate (Biotin-[…]-OH) is solubilized at 1 mM in kinase buffer (Hepes 50 mM, NaCl 1 mM, MgCl2 5 mM pH 7.5) as a stock solution conserved at −20° C. in aliquots of 110 μl. The day of the experiment, an aliquot of this solution is thawed and diluted to 14.3 μM in kinase buffer, containing 1 mM dithithreitol (DTT) added in the buffer extemporarily.
70 μl of this solution is added in each well of the flashplate in order to achieve a final concentration of 10 μM (100 μl reactionnal volume). […] 10 μl of each of these solutions (or 10 μl of buffer+DTT for controls) are transferred to the testplate wells in order to achieve 10 μM, 3.33 μM, 1.11 μM, 0.37 μM, 0.12 μM, 0.04 μM and 0.01 μM as final concentrations, 1% DMSO (vol/vol). In each well, 10 μl of a solution of a mix of ^33PγATP/ATP are added in order to achieve 1 μM final concentration and a total of 1 μCi. The kinase reaction is initiated by addition of 10 μl of a solution at 200 nM of CDK2/Cyclin E in kinase buffer+DTT (or buffer+DTT for blanks) in order to achieve 20 nM final concentration. After addition of each reagent, the test-plate is shaked. The plates are incubated 30 minute at 30° C. with a shaking at 650 rpm. At the end of the incubation, the plates are washed 3 times with 300 μl of PBS (without calcium and magnesium) per well. The incorporation of ^33P to the peptide is measured by scintillation counting.

The results in this text go back to patent US7754713B2, “4-benzimidazol-2-ylpyridazin-3-one derivatives” (Aventis Pharma S.A., priority 2004, dated 2010).

`CN1CCN(CCCNC(=O)c2ccc3nc(-c4cc(-c5ccncc5)n[nH]c4=O)[nH]c3c2)CC1` [Example 9, 2-(3-Oxo-6-pyridin-4-yl-2,3-dihydropyridazin-4-yl)-1H-benzimidazole-5-carboxylic acid [3-(4-methylpiperazin-1-yl)propyl]amide]: the melting point – broadly, the temperature of the solid-liquid transition – was > 30 °C (dec.).

In the case of `O=c1[nH]nc(-c2ccncc2)cc1-c1nc2ccc(C(F)(F)F)cc2[nH]1` [Example 6, 4-(6-Trifluoromethyl-1H-benzimidazol-2-yl)-6-pyridin-4-yl-2H-pyridazin-3-one], the IC50 (commonly the midpoint of a concentration-inhibition curve) in data set [1] came out at 214 nM.

`COC(=O)c1ccc2nc(-c3cc(-c4ccncc4)n[nH]c3=O)[nH]c2c1` [Example 1, Methyl 2-(3-oxo-6-pyridin-4-yl-2,3-dihydropyridazin-4-yl)-1H-benzimidazole-5-carboxylate]: in data set [1], the IC50 amounted to 124 nM.

Take `O=c1[nH]nc(-c2ccncc2)cc1-c1nc2ccc(Cl)cc2[nH]1` [Example 5, 4-(6-Chloro-1H-benzimidazol-2-yl)-6-pyridin-4-yl-2H-pyridazin-3-one]: the 50% inhibitory concentration (IC50) in data set [1] turned out to be 26 nM.
